“Also recorded” adds a separate entry of the source. Bridge positions count the residues as written; N and C are the ends. Square brackets hold non-standard residues; d marks the D form. Peptide text beside a SMILES is read from it. Nle = CCCC[C@H](N)C(=O)O
Test system: lésions excitotoxiques induites par l'iboténate dans le cerveau de souris en développement
Assay: Ibotenate-induced excitotoxic brain lesions in newborn mice (intracerebral ibotenate at JN or JN+5)
Type: in vivo
Text: Le modèle chez la souris obtenu par injection intracérébrale d'iboténate reproduit : • des lésions du cortex cérébral, semblables à celles observées chez le foetus humain entre 16 et 25 semaines de grossesse, lorsque l'iboténate est injecté le jour de la naissance (JN), • des lésions du cortex cérébral semblables aux lésions du nouveau-né humain à terme, lorsque l'injection d'iboténate est effectuée à JN + 5 et • des lésions de la substance blanche, semblables aux lésions du prématuré humain, lorsque l'iboténate est injecté à JN + 5.
Dans l'ensemble de ces figures : * = p<0,05, ** = p<0,01 (ANOVA + test de comparaison multiple de Dunnett par rapport aux contrôles (iboténate seul)).
Les souris sont préparées comme décrit dans J Clin. Investig. précité.
Le VIP est injecté par voie intracérébrale à raison de 1 µg (dose par animal) et les VIP cycliques ont été injectés par voie intrapéritonéale à raison de 10 µg (dose par animal).

[1] = ibotenate at JN+5, peptide by intracerebral route
[2] = ibotenate at JN+5, peptide by intraperitoneal route

SMILES	delay of administration after the ibotenate injection within which the effects at JN+5 are observed (JN+5, peptide given after ibotenate)	taille des lésions corticales [1]	taille des lésions de substance blanche [1]	taille des lésions corticales (ibotenate at JN+5, peptide by intraperitoneal (parenteral) route)	taille des lésions de substance blanche [2]	taille des lésions corticales (ibotenate at JN, given at the same time, cyclic VIP intraperitoneal, 10 µg per animal)
CCCC[C@H](NC(=O)[C@H](CCC(N)=O)NC(=O)[C@H](CCCCN)NC(=O)[C@H](CCCNC(=N)N)NC(=O)[C@H](CC(C)C)NC(=O)[C@H](CCCCN)NC(=O)[C@@H](NC(=O)[C@H](Cc1ccc(O)cc1)NC(=O)[C@H](CC(N)=O)NC(=O)[C@H](CCC(=O)O)NC(=O)[C@@H](NC(=O)[C@H](Cc1ccccc1)NC(=O)[C@@H](NC(=O)[C@H](C)NC(=O)[C@H](CC(=O)O)NC(=O)[C@H](CO)NC(=O)[C@H](Cc1c[nH]cn1)NC(C)=O)C(C)C)[C@@H](C)O)[C@@H](C)O)C(=O)N[C@@H](C)C(=O)N[C@@H](C)C(=O)N[C@@H](CCCCN)C(=O)N[C@H]1CCCCNC(=O)C[C@@H](C(=O)N[C@@H](CC(C)C)C(=O)N[C@@H](CCCCN)C(=O)N[C@@H](CCCCN)C(=O)NCC(=O)NCC(=O)N[C@H](C(N)=O)[C@@H](C)O)NC(=O)[C@H](CC(N)=O)NC(=O)[C@H](CC(C)C)NC(=O)[C@H](Cc2ccc(O)cc2)NC1=O [SEQ ID NO:2] (Ac-HSDAVFTENYTKLRKQ[Nle]AAKKYLNDLKKGGT-NH2; lactam 21-25)	8 à 12 heures	n'est significative que lorsque l'analogue cyclique du VIP de SEQ ID NO:2 est administré par voie parentérale; also recorded: une certaine protection du cortex cérébral	diminution de la taille des lésions de substance blanche significative; also recorded: protège significativement la substance blanche	significative; also recorded: une certaine protection du cortex cérébral, surtout en intrapéritonéale	diminution de la taille des lésions de substance blanche significative; also recorded: activité significative; also recorded: protège significativement la substance blanche	
CCCC[C@H](NC(=O)[C@H](CCCNC(=N)N)NC(=O)[C@H](CCCCN)NC(=O)[C@H](CCCNC(=N)N)NC(=O)[C@H](CC(C)C)NC(=O)[C@H](CCCCN)NC(=O)[C@@H](NC(=O)[C@H](Cc1ccc(O)cc1)NC(=O)[C@H](CC(N)=O)NC(=O)[C@H](CCC(=O)O)NC(=O)[C@@H](NC(=O)[C@H](Cc1ccccc1)NC(=O)[C@@H](NC(=O)[C@H](C)NC(=O)[C@H](CC(=O)O)NC(=O)[C@H](CO)NC(=O)[C@H](Cc1c[nH]cn1)NC(C)=O)C(C)C)[C@@H](C)O)[C@@H](C)O)C(=O)N[C@@H](C)C(=O)N[C@@H](C)C(=O)N[C@@H](CCCCN)C(=O)N[C@H]1CCCCNC(=O)C[C@@H](C(=O)N[C@@H](CC(C)C)C(=O)N[C@@H](CCCCN)C(=O)N[C@@H](CCCCN)C(=O)NCC(=O)NCC(=O)N[C@H](C(N)=O)[C@@H](C)O)NC(=O)[C@H](CC(N)=O)NC(=O)[C@H](CC(C)C)NC(=O)[C@H](Cc2ccc(O)cc2)NC1=O [SEQ ID NO:3] (Ac-HSDAVFTENYTKLRKR[Nle]AAKKYLNDLKKGGT-NH2; lactam 21-25)					reproduit les effets neuroprotecteurs de l'analogue cyclique de VIP de SEQ ID NO:2	reproduit les effets neuroprotecteurs de l'analogue cyclique de VIP de SEQ ID NO:2

Reference: patent publication EP1061945B1, “USE OF VIP ANALOGUES FOR PREVENTING AND TREATING BRAIN DAMAGE IN HUMAN BABIES” (ASSISTANCE PUBLIQUE - HOPITAUX DE PARIS, priority 1998, dated 2002)
